In paper PMC12136031 (Science Advances, 2025):
Like-named read-outs stand apart in the source and are kept apart here.

Key:
[1] = target: T1, DRD2S (Homo sapiens, UniProt P14416); assay: Safety47 cAMP DRD2S; type: cell-based; settings: for Emax: read-out: Max Response; for EC50: read-out: RC50 (EC50); for IC50: read-out: RC50 (IC50)
T1 construct: purchased Eurofins Panlab Safety47 Safety Scan

[2] = target: T2, DRD1 (Homo sapiens, UniProt P21728); assay: Safety47 cAMP DRD1; type: cell-based; settings: for Emax: read-out: Max Response; for EC50: read-out: RC50 (EC50); for IC50: read-out: RC50 (IC50)
T2 construct: purchased Eurofins Panlab Safety47 Safety Scan
T2 sequence (P21728 whole entry): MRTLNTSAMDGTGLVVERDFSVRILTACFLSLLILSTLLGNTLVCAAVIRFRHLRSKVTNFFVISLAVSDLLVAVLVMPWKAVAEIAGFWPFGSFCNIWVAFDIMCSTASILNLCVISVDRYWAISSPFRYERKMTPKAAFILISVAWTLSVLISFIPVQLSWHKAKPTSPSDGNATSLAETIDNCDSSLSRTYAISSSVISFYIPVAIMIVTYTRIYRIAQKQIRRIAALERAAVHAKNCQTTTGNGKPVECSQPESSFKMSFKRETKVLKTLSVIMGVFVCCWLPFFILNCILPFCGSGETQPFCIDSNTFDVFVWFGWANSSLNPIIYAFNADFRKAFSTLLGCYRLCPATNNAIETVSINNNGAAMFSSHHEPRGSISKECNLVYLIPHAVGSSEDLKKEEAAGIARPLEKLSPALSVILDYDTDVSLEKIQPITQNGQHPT

[3] = target: T3, OPRK1 (Homo sapiens, UniProt P41145); assay: Safety47 cAMP OPRK1; type: cell-based; settings: for Emax: read-out: Max Response; for EC50: read-out: RC50 (EC50); for IC50: read-out: RC50 (IC50)
T3 construct: purchased Eurofins Panlab (Safety47 Safety Scan, contract panel)
T3 sequence (P41145 whole entry, species assumed): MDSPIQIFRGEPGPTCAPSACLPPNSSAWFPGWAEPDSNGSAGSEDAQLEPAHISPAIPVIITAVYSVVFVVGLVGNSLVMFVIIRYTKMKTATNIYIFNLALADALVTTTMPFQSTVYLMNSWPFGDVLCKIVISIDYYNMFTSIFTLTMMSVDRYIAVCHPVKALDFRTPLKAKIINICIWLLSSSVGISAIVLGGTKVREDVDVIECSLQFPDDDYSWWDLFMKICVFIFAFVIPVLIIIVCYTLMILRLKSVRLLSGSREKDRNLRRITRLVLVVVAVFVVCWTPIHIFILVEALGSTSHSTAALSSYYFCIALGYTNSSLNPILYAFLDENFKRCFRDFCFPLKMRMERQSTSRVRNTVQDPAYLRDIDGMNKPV

[4] = target: T4, CHRM3 (Homo sapiens, UniProt P20309); assay: Safety47 Calcium Flux CHRM3; type: cell-based; settings: for Emax: read-out: Max Response; for EC50: read-out: RC50 (EC50); for IC50: read-out: RC50 (IC50)
T4 construct: purchased Eurofins Panlab Safety47 Safety Scan
T4 sequence (P20309 whole entry): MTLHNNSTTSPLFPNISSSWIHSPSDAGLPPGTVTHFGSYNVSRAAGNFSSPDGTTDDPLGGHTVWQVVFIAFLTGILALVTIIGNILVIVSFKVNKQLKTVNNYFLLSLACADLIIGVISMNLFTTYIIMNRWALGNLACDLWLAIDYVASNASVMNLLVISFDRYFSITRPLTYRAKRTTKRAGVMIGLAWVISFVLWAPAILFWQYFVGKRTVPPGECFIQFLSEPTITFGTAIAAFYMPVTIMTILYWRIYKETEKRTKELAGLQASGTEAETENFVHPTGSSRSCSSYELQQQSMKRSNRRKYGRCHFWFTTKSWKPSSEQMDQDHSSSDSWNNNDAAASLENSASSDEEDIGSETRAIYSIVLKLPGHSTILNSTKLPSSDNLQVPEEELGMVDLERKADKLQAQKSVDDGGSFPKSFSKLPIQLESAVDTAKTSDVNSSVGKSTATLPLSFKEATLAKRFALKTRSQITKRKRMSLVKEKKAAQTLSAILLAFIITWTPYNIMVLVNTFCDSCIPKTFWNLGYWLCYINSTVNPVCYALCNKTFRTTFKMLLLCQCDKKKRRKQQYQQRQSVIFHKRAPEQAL

[5] = target: T5, CAV1.2 (Homo sapiens, UniProt Q13936); assay: Safety47 Ion Channel CAV1.2; type: cell-based; settings: Blocker; for Emax: read-out: Max Response; for IC50: read-out: RC50 (IC50)
T5 construct: purchased Eurofins Panlab (Safety47 Safety Scan, contract panel)

[6] = target: T6, OPRD1 (Homo sapiens, UniProt P41143); assay: Safety47 cAMP OPRD1; type: cell-based; settings: for Emax: read-out: Max Response; for EC50: read-out: RC50 (EC50); for IC50: read-out: RC50 (IC50)
T6 construct: purchased Eurofins Panlab (Safety47 Safety Scan, contract panel)
T6 sequence (P41143 whole entry, species assumed): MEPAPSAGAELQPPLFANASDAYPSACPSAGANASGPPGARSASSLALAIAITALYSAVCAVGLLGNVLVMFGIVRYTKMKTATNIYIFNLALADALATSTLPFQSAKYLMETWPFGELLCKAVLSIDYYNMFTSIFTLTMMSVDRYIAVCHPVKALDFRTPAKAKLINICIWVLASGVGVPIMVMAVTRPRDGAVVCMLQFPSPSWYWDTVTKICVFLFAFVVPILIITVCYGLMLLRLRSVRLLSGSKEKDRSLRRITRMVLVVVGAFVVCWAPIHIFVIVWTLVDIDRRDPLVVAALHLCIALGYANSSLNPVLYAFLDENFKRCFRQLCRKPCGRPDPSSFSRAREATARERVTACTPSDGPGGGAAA

[7] = target: T7, ADORA2A (Homo sapiens, UniProt P29274); assay: Safety47 Calcium Flux ADORA2A; type: cell-based; settings: for Emax: read-out: Max Response; for EC50: read-out: RC50 (EC50); for IC50: read-out: RC50 (IC50)
T7 construct: purchased Eurofins Panlab Safety47 Safety Scan
T7 sequence (P29274 whole entry): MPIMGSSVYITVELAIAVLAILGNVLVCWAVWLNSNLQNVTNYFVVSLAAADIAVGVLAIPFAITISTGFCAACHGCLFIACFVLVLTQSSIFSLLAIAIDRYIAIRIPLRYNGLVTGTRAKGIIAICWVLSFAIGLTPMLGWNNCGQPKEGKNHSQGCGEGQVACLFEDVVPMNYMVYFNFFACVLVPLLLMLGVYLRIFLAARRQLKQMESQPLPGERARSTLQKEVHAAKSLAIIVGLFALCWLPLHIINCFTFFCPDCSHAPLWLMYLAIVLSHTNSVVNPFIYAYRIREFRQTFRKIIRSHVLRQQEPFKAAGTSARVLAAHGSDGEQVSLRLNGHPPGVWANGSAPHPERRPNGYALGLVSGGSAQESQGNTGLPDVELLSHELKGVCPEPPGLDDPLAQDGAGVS

[8] = target: T8, OPRM1 (Homo sapiens, UniProt P35372); assay: Safety47 cAMP OPRM1; type: cell-based; settings: for Emax: OPRM1, cAMP, read-out: Max Response; for EC50: read-out: RC50 (EC50); for IC50: read-out: RC50 (IC50)
T8 construct: purchased Eurofins Panlab (Safety47 Safety Scan, contract panel)
T8 sequence (P35372 whole entry, species assumed): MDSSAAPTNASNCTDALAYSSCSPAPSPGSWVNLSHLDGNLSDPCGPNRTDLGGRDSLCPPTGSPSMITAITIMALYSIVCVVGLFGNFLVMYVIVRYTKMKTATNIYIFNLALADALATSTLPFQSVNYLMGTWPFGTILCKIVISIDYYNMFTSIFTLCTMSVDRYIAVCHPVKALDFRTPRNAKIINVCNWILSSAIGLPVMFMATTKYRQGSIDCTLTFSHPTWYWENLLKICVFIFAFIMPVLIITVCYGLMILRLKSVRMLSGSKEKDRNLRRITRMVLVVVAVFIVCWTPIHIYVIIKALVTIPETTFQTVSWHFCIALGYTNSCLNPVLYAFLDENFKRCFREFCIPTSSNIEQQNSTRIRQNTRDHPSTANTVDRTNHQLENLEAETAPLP

[9] = target: T9, COX1 (Homo sapiens, UniProt P23219); assay: Safety47 Enzymatic COX1; type: biochemical; settings: Inhibitor; for Emax: read-out: Max Response; for IC50: read-out: RC50 (IC50)
T9 construct: purchased Eurofins Panlab (Safety47 Safety Scan, contract panel)
T9 sequence (P23219 24-599): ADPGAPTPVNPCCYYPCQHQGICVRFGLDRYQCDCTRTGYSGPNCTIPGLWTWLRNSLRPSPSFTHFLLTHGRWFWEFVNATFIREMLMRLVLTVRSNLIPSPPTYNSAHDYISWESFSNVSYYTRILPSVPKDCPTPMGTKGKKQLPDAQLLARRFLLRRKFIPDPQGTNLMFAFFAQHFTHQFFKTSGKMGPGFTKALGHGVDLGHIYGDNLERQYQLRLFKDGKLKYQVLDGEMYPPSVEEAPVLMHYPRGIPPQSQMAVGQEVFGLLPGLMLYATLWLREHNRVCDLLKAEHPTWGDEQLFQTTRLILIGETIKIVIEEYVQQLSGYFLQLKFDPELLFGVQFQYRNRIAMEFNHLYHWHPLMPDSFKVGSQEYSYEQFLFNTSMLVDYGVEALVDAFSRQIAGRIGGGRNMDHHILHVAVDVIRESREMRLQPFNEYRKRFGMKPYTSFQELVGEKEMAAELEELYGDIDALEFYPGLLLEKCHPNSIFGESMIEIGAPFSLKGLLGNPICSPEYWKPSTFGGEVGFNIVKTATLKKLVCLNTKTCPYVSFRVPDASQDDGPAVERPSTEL

[10] = test system: TFEB; assay: TFEB protein level / nuclear localization in BEAS-2B cells; type: cell-based, human; settings: in the presence of DCAF7 (WT vs DCAF7 KO BEAS-2B), 18 hours
[11] = target: T10, HTR1A (Homo sapiens, UniProt P08908); assay: Safety47 cAMP HTR1A; type: cell-based; settings: for Emax: read-out: Max Response; for EC50: read-out: RC50 (EC50); for IC50: read-out: RC50 (IC50)
T10 construct: purchased Eurofins Panlab Safety47 Safety Scan
T10 sequence (P08908 1-422): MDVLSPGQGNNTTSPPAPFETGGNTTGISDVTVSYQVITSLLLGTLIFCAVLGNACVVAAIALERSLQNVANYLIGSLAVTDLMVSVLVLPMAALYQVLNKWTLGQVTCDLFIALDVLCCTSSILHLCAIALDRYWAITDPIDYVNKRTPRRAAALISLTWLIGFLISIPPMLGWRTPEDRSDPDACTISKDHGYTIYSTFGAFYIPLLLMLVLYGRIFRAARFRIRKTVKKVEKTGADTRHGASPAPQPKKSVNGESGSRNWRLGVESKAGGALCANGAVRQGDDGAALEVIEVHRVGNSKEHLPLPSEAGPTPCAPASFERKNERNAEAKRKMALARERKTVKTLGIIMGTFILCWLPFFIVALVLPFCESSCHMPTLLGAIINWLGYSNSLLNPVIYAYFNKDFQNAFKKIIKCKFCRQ

[12] = target: T11, DCAF7-TFEB interaction (Homo sapiens, UniProt P61962); assay: Proximity ligation assay of TFEB and DCAF7 in BEAS-2B cells; type: cell-based
T11 construct: endogenous in cells; host or cells: BEAS-2B
T11 sequence (P61962 whole entry): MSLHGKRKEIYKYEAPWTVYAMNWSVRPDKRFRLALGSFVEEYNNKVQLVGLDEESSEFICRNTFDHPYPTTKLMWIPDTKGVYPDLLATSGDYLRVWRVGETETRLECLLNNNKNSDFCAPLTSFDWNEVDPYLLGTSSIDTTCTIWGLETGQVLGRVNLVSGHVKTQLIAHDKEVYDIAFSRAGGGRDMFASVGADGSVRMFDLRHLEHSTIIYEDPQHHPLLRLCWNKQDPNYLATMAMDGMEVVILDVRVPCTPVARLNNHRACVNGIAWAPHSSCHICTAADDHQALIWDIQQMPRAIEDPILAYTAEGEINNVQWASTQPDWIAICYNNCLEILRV

[13] = target: T12, CCKAR (Homo sapiens, UniProt P32238); assay: Safety47 Calcium Flux CCKAR; type: cell-based; settings: for Emax: read-out: Max Response; for EC50: read-out: RC50 (EC50); for IC50: read-out: RC50 (IC50)
T12 construct: purchased Eurofins Panlab Safety47 Safety Scan
T12 sequence (P32238 1-428): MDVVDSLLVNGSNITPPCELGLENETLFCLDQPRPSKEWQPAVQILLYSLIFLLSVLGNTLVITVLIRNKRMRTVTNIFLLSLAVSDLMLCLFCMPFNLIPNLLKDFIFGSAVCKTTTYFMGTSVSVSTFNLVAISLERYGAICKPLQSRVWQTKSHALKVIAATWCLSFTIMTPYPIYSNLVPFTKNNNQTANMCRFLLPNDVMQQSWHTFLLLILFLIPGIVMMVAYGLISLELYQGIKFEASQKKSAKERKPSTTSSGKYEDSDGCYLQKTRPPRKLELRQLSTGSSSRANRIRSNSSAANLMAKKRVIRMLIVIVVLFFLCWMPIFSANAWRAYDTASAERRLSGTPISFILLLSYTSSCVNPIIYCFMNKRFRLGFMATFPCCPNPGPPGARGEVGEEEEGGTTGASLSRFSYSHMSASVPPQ

[14] = target: T13, PDE4D2 (Homo sapiens, UniProt Q08499); assay: Safety47 Enzymatic PDE4D2; type: biochemical; settings: Inhibitor; for Emax: read-out: Max Response; for IC50: read-out: RC50 (IC50)
T13 construct: purchased Eurofins Panlab (Safety47 Safety Scan, contract panel)
T13 sequence (Q08499 303-809 limits assumed): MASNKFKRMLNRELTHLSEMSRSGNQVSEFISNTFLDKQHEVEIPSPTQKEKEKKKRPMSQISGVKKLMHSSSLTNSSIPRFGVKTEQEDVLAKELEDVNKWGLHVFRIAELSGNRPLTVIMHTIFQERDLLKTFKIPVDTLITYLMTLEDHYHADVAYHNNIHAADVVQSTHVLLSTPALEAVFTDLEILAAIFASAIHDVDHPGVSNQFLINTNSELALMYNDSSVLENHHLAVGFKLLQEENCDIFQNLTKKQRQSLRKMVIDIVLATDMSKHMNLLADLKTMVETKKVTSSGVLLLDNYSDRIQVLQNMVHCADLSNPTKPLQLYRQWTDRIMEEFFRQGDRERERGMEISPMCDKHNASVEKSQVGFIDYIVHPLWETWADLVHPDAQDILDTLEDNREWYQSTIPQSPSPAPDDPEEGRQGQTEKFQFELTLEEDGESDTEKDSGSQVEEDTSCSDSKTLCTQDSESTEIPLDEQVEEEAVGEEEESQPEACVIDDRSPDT

[15] = target: T14, CNR2 (Homo sapiens, UniProt P34972); assay: Safety47 cAMP CNR2; type: cell-based; settings: for Emax: read-out: Max Response; for EC50: read-out: RC50 (EC50); for IC50: read-out: RC50 (IC50)
T14 construct: purchased Eurofins Panlab Safety47 Safety Scan
T14 sequence (P34972 whole entry): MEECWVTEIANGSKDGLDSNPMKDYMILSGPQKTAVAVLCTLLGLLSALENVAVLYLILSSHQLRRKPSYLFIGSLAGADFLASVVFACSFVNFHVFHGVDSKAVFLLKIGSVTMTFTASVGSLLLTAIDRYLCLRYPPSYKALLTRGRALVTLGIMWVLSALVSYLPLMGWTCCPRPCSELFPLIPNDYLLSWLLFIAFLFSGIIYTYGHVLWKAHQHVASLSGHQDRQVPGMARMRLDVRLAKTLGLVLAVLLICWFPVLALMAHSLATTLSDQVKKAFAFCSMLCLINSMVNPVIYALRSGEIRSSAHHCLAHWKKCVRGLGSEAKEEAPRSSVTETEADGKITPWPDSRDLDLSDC

T1 sequence (P14416 1-414 isoform P14416-2): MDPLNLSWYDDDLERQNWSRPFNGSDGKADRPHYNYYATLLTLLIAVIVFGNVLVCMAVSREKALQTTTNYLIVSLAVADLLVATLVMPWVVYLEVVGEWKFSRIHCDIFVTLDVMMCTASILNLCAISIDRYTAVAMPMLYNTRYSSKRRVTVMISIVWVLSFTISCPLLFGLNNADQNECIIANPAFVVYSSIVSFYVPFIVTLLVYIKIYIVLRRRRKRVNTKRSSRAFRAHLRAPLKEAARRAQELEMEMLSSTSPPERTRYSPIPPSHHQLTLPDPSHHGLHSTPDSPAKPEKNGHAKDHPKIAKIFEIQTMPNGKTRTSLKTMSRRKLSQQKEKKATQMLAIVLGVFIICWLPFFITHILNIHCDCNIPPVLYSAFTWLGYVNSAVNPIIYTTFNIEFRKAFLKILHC

Cl.c1ccc2c(Nc3ccc4[nH]ccc4c3)nc(-c3ccncc3)nc2c1 [BC18630, N-1H-indol-5-yl-2-pyridin-4-ylquinazolin-4-amine hydrochloride]
Emax ([1]; Agonist): 0.87%
EC50 ([1]; Agonist): > 10 µM
Emax ([1]; Antagonist): 24.3%
IC50 ([1]; Antagonist): > 10 µM
Emax ([2]; Agonist): 0%
EC50 ([2]; Agonist): > 10 µM
Curve Bottom ([2]; Antagonist): 0
Curve Top ([2]; Antagonist): 100
Hill ([2]; Antagonist): 1.45
Emax ([2]; Antagonist): 55.1%
IC50 ([2]; Antagonist): 8.45 µM
Emax ([3]; Agonist): 8.98%
EC50 ([3]; Agonist): > 10 µM
Emax ([3]; Antagonist): 1%
IC50 ([3]; Antagonist): > 10 µM
Emax ([4]; Agonist): 0%
EC50 ([4]; Agonist): > 10 µM
Emax ([4]; Antagonist): 13.7%
IC50 ([4]; Antagonist): > 10 µM
Emax [5]: 0%
IC50 [5]: > 10 µM
Emax ([6]; Agonist): 42.6%
EC50 ([6]; Agonist): > 10 µM
Emax ([6]; Antagonist): 9.94%
IC50 ([6]; Antagonist): > 10 µM
Emax ([7]; Agonist): 3.09%
EC50 ([7]; Agonist): > 10 µM
Emax ([7]; Antagonist): 29.8%
IC50 ([7]; Antagonist): > 10 µM
Emax ([8]; Agonist): 8.65%
Emax ([8]; Antagonist): 49.4%
EC50 ([8]; cAMP, Agonist): > 10 µM
IC50 ([8]; cAMP, Antagonist): > 10 µM
Emax [9]: 21.8%
IC50 [9]: > 10 µM
TFEB protein level [10]: increased
Emax ([11]; Agonist): 9.36%
EC50 ([11]; Agonist): > 10 µM
Emax ([11]; Antagonist): 5.7%
IC50 ([11]; Antagonist): > 10 µM
Nuclear protein-protein interaction between DCAF7 and TFEB (PLA) [12]: largely reduced
Emax ([13]; Agonist): 1.69%
EC50 ([13]; Agonist): > 10 µM
Emax ([13]; Antagonist): 0%
IC50 ([13]; Antagonist): > 10 µM
Emax [14]: 52.3%
IC50 [14]: > 10 µM
Emax ([15]; Agonist): 27.8%
EC50 ([15]; Agonist): > 10 µM
Emax ([15]; Antagonist): 0%
IC50 ([15]; Antagonist): > 10 µM

Cl.Fc1cc(Nc2nc(-c3ccncc3)nc3ncccc23)cc2cc[nH]c12 [BC18813, N-(7-fluoro-1H-indol-5-yl)-2-pyridin-4-ylpyrido[2,3-d]pyrimidin-4-amine hydrochloride]
Emax ([1]; Agonist): 13.5%
EC50 ([1]; Agonist): > 10 µM
Emax ([1]; Antagonist): 5.93%
IC50 ([1]; Antagonist): > 10 µM
Emax ([2]; Agonist): 0%
EC50 ([2]; Agonist): > 10 µM
Curve Bottom ([2]; Antagonist): 0
Curve Top ([2]; Antagonist): 100
Hill ([2]; Antagonist): 1.19
Emax ([2]; Antagonist): 50.1%
IC50 ([2]; Antagonist): 9.45 µM
Emax ([3]; Agonist): 24.3%
EC50 ([3]; Agonist): > 10 µM
Emax ([3]; Antagonist): 0%
IC50 ([3]; Antagonist): > 10 µM
Emax ([4]; Agonist): 0.56%
EC50 ([4]; Agonist): > 10 µM
Emax ([4]; Antagonist): 16.6%
IC50 ([4]; Antagonist): > 10 µM
Emax [5]: 0%
IC50 [5]: > 10 µM
Emax ([6]; Agonist): 54.8%
EC50 ([6]; Agonist): > 10 µM
Emax ([6]; Antagonist): 0%
IC50 ([6]; Antagonist): > 10 µM
Emax ([7]; Agonist): 1.05%
EC50 ([7]; Agonist): > 10 µM
Emax ([7]; Antagonist): 37.7%
IC50 ([7]; Antagonist): > 10 µM
Emax ([8]; Agonist): 24.4%
Emax ([8]; Antagonist): 53.3%
EC50 ([8]; cAMP, Agonist): > 10 µM
Curve Bottom ([8]; cAMP, Antagonist): -9.93
Curve Top ([8]; cAMP, Antagonist): 100
Hill ([8]; cAMP, Antagonist): 1.01
IC50 ([8]; cAMP, Antagonist): 7.46 µM
Emax [9]: 29.3%
IC50 [9]: > 10 µM
TFEB protein level [10]: increased
Emax ([11]; Agonist): 13%
EC50 ([11]; Agonist): > 10 µM
Emax ([11]; Antagonist): 0%
IC50 ([11]; Antagonist): > 10 µM
Nuclear protein-protein interaction between DCAF7 and TFEB (PLA) [12]: largely reduced
Emax ([13]; Agonist): 2.97%
EC50 ([13]; Agonist): > 10 µM
Emax ([13]; Antagonist): 0%
IC50 ([13]; Antagonist): > 10 µM
Emax [14]: 44.4%
IC50 [14]: > 10 µM
Curve Bottom ([15]; Agonist): 0
Curve Top ([15]; Agonist): 100
Hill ([15]; Agonist): 1.05
Emax ([15]; Agonist): 63.6%
EC50 ([15]; Agonist): 4.59 µM
Emax ([15]; Antagonist): 0%
IC50 ([15]; Antagonist): > 10 µM
